This is an account of results in US10538496B2, “Methods using HDAC11 inhibitors” (FORMA Therapeutics, Inc., priority 2016, dated 2020).

Structures are written as SMILES. pIC50: −log10 of the molar value.

In one assay the test system is Ba/F3 JAK2 V617F cells. As to the kind of experiment: Cell proliferation assay (CCK8). The format is cell-based. The settings on record: Mus musculus, BaF3; Ba/F3 JAK2V617F, 48h; read-out: IC50, inhibition of proliferation. As to the method: (§1) This example describes inhibition of in vitro cell proliferation with exemplary HDAC11 inhibitors. The effects of selective HDAC11 inhibitors on cell proliferation were measured in cell lines containing the MPN-associated mutations MPL W515L (Ba/F3 MPL W515L) and JAK2 V617F (Ba/F3 JAK2 V617F, HEL 92.1.7, SET-2). HEL 92.1.7 and SET-2 cells were purchased from the ATCC and DSMZ, respectively. Ba/F3 cells overexpressing either MPLW515L or JAK2V617F, which were cytokine independent, were generated by transforming Ba/F3 cells with retroviruses overexpressing either MPL W515L or JAK2V617F. For survival assays, cells were seeded in 96-well plates at the density of 0.1 million/ml with addition of indicated compounds and incubated at 37° C. for 48h. CCK8 solution (Dojindo, Rockville, Md.) was added and absorbance at 450 nm was measured after 3 hours of incubation. Readings were normalized to dimethylsulfoxide (DMSO)-treated wells.

The next assay deals with Ba/F3 MPL W515L cells. As to the kind of experiment: Cell proliferation assay (CCK8). The settings on record: Mus musculus, BaF3; Ba/F3 MPLW515L, 48h; read-out: IC50, inhibition of proliferation. The format is cell-based. As to the method: as §1
Another assay concerns H1650 SP cells. The assay can be described thus: Tube formation assay with stem-like side population NSCLC cells. The format is cell-based. The settings on record: on Matrigel, overnight. Here is the method:
The angiogenic tubule assay was performed with the sorted side population cells to analyze vascular mimicry. The H1650 side population cells were sorted as mentioned above and they were further grown on Matrigel (BD Biosciences) to form angiogenic tubule-like structures. 100 μl of thawed Matrigel was layered on the wells of 96-well tissue culture plates and allowed to polymerize at 37° C. for 30 min. Sorted H1650 SP cells were layered (12000 cells/100 μl of Matrigel) on the polymerized matrigel and incubated overnight at 37° C. Tubule formation was assessed under bright field using EVOS FL microscope system and images were acquired with EVOS software (Life Technologies Inc., USA). For the treatment with HDAC11 inhibitors, appropriate concentrations of the compounds were added to the cells when they were seeded on Matrigel for the tubule formation assay.

A further assay has as its system A549 cells. The assay can be described thus: Cell migration (scratch) assay. The format is cell-based. Here is the method:
The effects of HDAC11 inhibition on cell migration were determined using a scratch assay. A549 cells (120,000-150,000 cells/2 ml/well) were grown in 6-well tissue culture plates (BD Biosciences). A scratch was made using a sterile 2 μl pipette tip in each well. The 10% FBS containing medium was added to the wells after a wash with DPBS. To assess the effect of the HDAC11 inhibitors on cell migration, the inhibitors were added in the medium at appropriate concentrations. The cells were further incubated at 37° C. The images were taken on Day 0 and after every 24 hours using EVOS FL microscope system and EVOS software (Life Technologies Inc) and the cell migration was compared to the Day 0 of treatment.

The subject of another assay is HEL 92.1.7 cells. The assay can be described thus: Cell proliferation assay (CCK8). Format: cell-based. The settings on record: 48h. As to the method:
as §1

For another assay, the system named is SET-2 cells. The assay can be described thus: Cell proliferation assay (CCK8). Format: cell-based. The settings on record: Ruxolitinib-resistant SET-2. Here is the method:
as §1

Assay [1] has as its system STAT3 and STAT5 phosphorylation in HEL 92.1.7 cells. The assay can be described thus: STAT3 and STAT5 phosphorylation western blot assay. Format: cell-based. Here is the method:
The effects of selective HDAC11 inhibition on STAT3 and STAT3 phosphorylation in HEL 92.1.7 cells were determined by western blot. Cells were treated with HDAC11 inhibitors and lysed in RIPA buffer (Sigma-Aldrich, St. Louis, Mo.) supplemented with protease inhibitors (Roche, Basel, Switzerland) and phosphatase inhibitors (Sigma P5726). Protein concentrations were determined with Pierce BCA protein assay kit (Thermo Fisher Scientific, Waltham, Mass.). Proteins were separated on a 4-12% Bis-Tris gradient electrophoresis gel (Life Technologies, Carlsbad, Calif.) and transferred onto a nitrocellulose membrane. The membrane was then blocked in either 5% nonfat dry milk or 5% BSA followed by incubation with primary antibodies at 4° C. overnight. Antibodies for p-STAT5 (Abcam 32364), STAT5 (Cell Signaling 9358), p-STAT3 (Cell Signaling 9145) and STAT3 (Cell Signaling 9139) were used. β-actin was used as loading control.

Assay [2] deals with erythroid cells from MPN patients. The assay can be described thus: Colony formation assay from patient samples. Format: cell-based, human. The settings on record: two patient samples (ET; PV, Ruxolitinib resistant). Here is the method:
(§2) To determine the effects of selective HDAC11 inhibition on MPN patient samples, the effects of HDAC11 inhibitors were evaluated in a colony formation assay with erythroid or myeloid cells from MPN patients. Peripheral blood was obtained from MPN patients consented through the Moffitt Cancer Center Total Cancer Care protocol (MCC 14690). Blood was treated with HetaSep™ (STEMCELL Technologies, Inc.) to remove the majority of red blood cells. Peripheral blood mononuclear cells (PBMCs) were isolated by ficoll separation. PBMCs (1-4×105) were then plated in 1 mL of methylcellulose medium containing rhSCF, rhIL-3, and granulocyte-macrophage colony-stimulating factor (rhGM-CSF) (MethoCult™ #H4534; STEMCELL Technologies, Inc.). All drug treated samples contained 0.1% DMSO as the final concentration. Cells were incubated at 37° C. and 5% CO2 in a humidified incubator. Colonies were scored 12 to 14 days after plating.

Assay [3] has as its system myeloid cells from MPN patients. As to the kind of experiment: Colony formation assay from patient samples. The format is cell-based, human. The settings on record: two patient samples (ET; PV, Ruxolitinib resistant). As to the method:
as §2

As to `O=C(NO)c1cccc2c1C[C@]1(CCN(Cc3ccc(Cl)c(C(F)(F)F)c3)C1=O)C2` [HDTK054, (S)-1′-(4-chloro-3-(trifluoromethyl)benzyl)-N-hydroxy-2′-oxo-1,3-dihydrospiro[indene-2,3′-pyrrolidine]-4-carboxamide], the pIC50 with Ba/F3 JAK2 V617F cells and with Ba/F3 MPL W515L cells was 5.00 to 6.00 in each case. The “tubule formation by H1650 SP cells” value with H1650 SP cells was “inhibited tubule formation”. The A549 cell migration result with A549 cells was “impaired A549 cell migration”.

As for `O=C(NO)c1cccc(Nc2nc3cc(Cl)c(Cl)cc3o2)c1` [HDTK010, 3-((5,6-dichlorobenzo[d]oxazol-2-yl)amino)-N-hydroxybenzamide], in the assay with HEL 92.1.7 cells, the “growth of the HEL 92.1.7 cell line” value was “inhibited the growth”. Besides, the “growth of a SET-2 cell line generated to be Ruxolitinib-resistant” value with SET-2 cells is listed as “inhibited the growth”. Also, in [1], the STAT3 phosphorylation entry is “inhibited” and the STAT5 phosphorylation entry is “inhibited”. The “growth of colonies from erythroid cells” value in assay [2] is recorded as “reduced the growth of colonies”. Further, in assay [3], the “growth of colonies from myeloid cells” value was “reduced the growth of colonies”.
